# Measurements published in patent publication US10138230B2, “Autotaxin inhibitors” (CANCER RESEARCH TECHNOLOGY LIMITED, priority 2015, dated 2018).
# Structures can show the parent of a compound that is named as a salt.
# Biological target: human recombinant ATX (Homo sapiens (Human), UniProt Q13822)
# Test: Autotaxin (ATX) activity Quanta Red assay
# Format: biochemical
# Conditions: 15 μM Rac-1-Palmitoyl-glycero-3-phosphocholine, 2 hours room temperature, determined in duplicate
# In short: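 Choline released from 15 μM LPC substrate by 0.8 μg/mL recombinant human ATX (pH 8.0 Tris, CaCl2, 4% DMSO, 2 h, RT) was detected by coupled Quanta Red fluorescence.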
row,IC50 [nM],SMILES
1,38,"O=C(Nc1cc(CCc2ccccc2)[nH]n1)C1CC(=O)N(c2ccc(CN3CCOCC3)cc2)C1 (stereo not shown) [Compound F179, 1-[4-(morpholinomethyl)phenyl]-5-oxo-N-[5-(2-phenylethyl)-1H-pyrazol-3-yl]pyrrolidine-3-carboxamide]"
2,11,"O=C(Nc1ccc(CCc2ccc(F)cc2)nn1)[C@H]1CC(=O)N(c2ccc(CN3CCOCC3)cc2)C1 [Compound F180, (3S)—N-[6-[2-(4-fluorophenyl)ethyl]pyridazin-3-yl]-1-[4-(morpholinomethyl)phenyl]-5-oxo-pyrrolidine-3-carboxamide hydrochloride]"
3,21,"CCC(C)CCc1nnc(NC(=O)C2CC(=O)N(c3ccc(CN4CCCCC4)cc3)C2)s1 (stereo not shown) [Compound F182, 5-oxo-1-(4-piperidin-1-ylmethyl-phenyl)-pyrrolidine-3-carboxylic acid [5-(3-methyl-pentyl)-[1,3,4]thiadiazol-2-yl]-amide; hydrochloride]"
4,45,"CN1CCC(C(=O)NCc2ccc(N3CC(C(=O)Nc4nnc(CCc5ccc(Cl)cc5)s4)CC3=O)cc2)CC1 (stereo not shown) [Compound F184, 1-Methyl-piperidine-4-carboxylic acid 4-(4-{5-[2-(4-chloro-phenyl)-ethyl]-[1,3,4]thiadiazol-2-ylcarbamoyl}-2-oxo-pyrrolidin-1-yl)-benzylamide]"
5,134,"O=C(Nc1nnc(CCC2CCCO2)s1)[C@H]1CC(=O)N(c2ccc(CN3CCOCC3)cc2)C1 (stereo partly drawn) [Compound F186, (3S)-1-[4-(morpholinomethyl)phenyl]-5-oxo-N-[5-(2-tetrahydrofuran-2-ylethyl)-1,3,4-thiadiazol-2-yl]pyrrolidine-3-carboxamide]"
6,163,"O=C(Nc1ncc(COC2CCCCC2)s1)C1CC(=O)N(c2ccc(CN3CCOCC3)cc2)C1 (stereo not shown) [Compound F187, N-[5-(cyclohexoxymethyl)thiazol-2-yl]-1-[4-(morpholinomethyl)phenyl]-5-oxo-pyrrolidine-3-carboxamide]"
7,487,"O=C(Nc1nnc(CCC2CCOCC2)s1)C1CC(=O)N(c2ccc(CN3CCCCC3)cc2)C1 (stereo not shown) [Compound F189, 5-oxo-1-[4-(1-piperidylmethyl)phenyl]-N-[5-(2-tetrahydropyran-4-ylethyl)-1,3,4-thiadiazol-2-yl]pyrrolidine-3-carboxamide]"
8,526,"O=C(Nc1nnc(CCC2CCOCC2)s1)[C@H]1CC(=O)N(c2ccc(CN3CCCCC3)cc2)C1 [Compound F190, (3S)-5-oxo-1-[4-(1-piperidylmethyl)phenyl]-N-[5-(2-tetrahydropyran-4-ylethyl)-1,3,4-thiadiazol-2-yl]pyrrolidine-3-carboxamide]"
9,615,"O=C(Nc1nnc(CCC2CCCO2)s1)[C@H]1CC(=O)N(c2ccc(CN3CCCCC3)cc2)C1 (stereo partly drawn) [Compound F191, (3S)-5-oxo-1-[4-(1-piperidylmethyl)phenyl]-N-[5-(2-tetrahydrofuran-2-ylethyl)-1,3,4-thiadiazol-2-yl]pyrrolidine-3-carboxamide]"
10,773,"Cn1nc(NC(=O)C2CC(=O)N(c3ccc(CN4CCOCC4)cc3)C2)cc1CCc1ccc(Cl)cc1 (stereo not shown) [Compound F192, N-[5-[2-(4-chlorophenyl)ethyl]-1-methyl-pyrazol-3-yl]-1-[4-(morpholinomethyl)phenyl]-5-oxo-pyrrolidine-3-carboxamide]"
11,649,"O=C(NC1CC(=O)N(c2ccc(CN3CCCCC3)cc2)C1)c1nnc(CCc2ccccc2)o1 (stereo not shown) [Compound F194, N-[5-oxo-1-[4-(1-piperidylmethyl)phenyl]pyrrolidin-3-yl]-5-(2-phenylethyl)-1,3,4-oxadiazole-2-carboxamide]"
12,766,"O=C(NC1CC(=O)N(c2ccc(CN3CCCCC3)cc2)C1)c1nnc(CCc2ccco2)s1 (stereo not shown) [Compound F195, 5-[2-(2-furyl)ethyl]-N-[5-oxo-1-[4-(1-piperidylmethyl)phenyl]pyrrolidin-3-yl]-1,3,4-thiadiazole-2-carboxamide]"
13,103,"O=C(NC1CC(=O)N(c2ccc(CN3CCCCC3)cc2)C1)c1nnc(NCc2ccc(Cl)cc2)s1 (stereo not shown) [Compound F196, 5-[(4-chlorophenyl)methyl-amino]-N-[5-oxo-1-[4-(1-piperidylmethyl)phenyl]pyrrolidin-3-yl]-1,3,4-thiadiazole-2-carboxamide]"
14,465,"O=C(NC1CC(=O)N(c2ccc(CN3CCCCC3)cc2)C1)c1ncc(CCc2ccccc2)s1 (stereo not shown) [Compound F197, N-[5-oxo-1-[4-(1-piperidylmethyl)phenyl]pyrrolidin-3-yl]-5-(2-phenylethyl)thiazole-2-carboxamide]"
15,989,"O=C(NC1CC(=O)N(c2ccc(CN3CCCCC3)cc2)C1)c1cc(CCc2ccccc2)no1 (stereo not shown) [Compound F198, N-[5-oxo-1-[4-(1-piperidylmethyl)phenyl]pyrrolidin-3-yl]-3-(2-phenylethyl)isoxazole-5-carboxamide]"
16,293,"COc1ccc(CCc2cc(NC(=O)C3CC(=O)N(c4ccc(CN5CCOCC5)cc4)C3)on2)cc1 (stereo not shown) [Compound F199, N-[3-[2-(4-methoxyphenyl)ethyl]isoxazol-5-yl]-1-[4-(morpholinomethyl)phenyl]-5-oxo-pyrrolidine-3-carboxamide]"
17,760,"O=C(Nc1cc(CCc2ccccc2)no1)C1CC(=O)N(c2ccc(CN3CCOCC3)cc2)C1 (stereo not shown) [Compound F200, 1-[4-(morpholinomethyl)phenyl]-5-oxo-N-[3-(2-phenylethyl)isoxazol-5-yl]pyrrolidine-3-carboxamide]"
18,1070,"O=C(Nc1cnc(CCc2ccccc2)s1)C1CC(=O)N(c2ccc(CN3CCOCC3)cc2)C1 (stereo not shown) [Compound F201, 1-[4-(morpholinomethyl)phenyl]-5-oxo-N-[2-(2-phenylethyl)thiazol-5-yl]pyrrolidine-3-carboxamide]"
19,385,"NCc1ccc(N2CC(C(=O)Nc3nnc(CCc4ccc(Cl)cc4)s3)CC2=O)cc1 (stereo not shown) [Compound F203, 1-(4-aminomethyl-phenyl)-5-oxo-pyrrolidine-3-carboxylic acid {5-[2-(4-chloro-phenyl)-ethyl]-[1,3,4]thiadiazol-2-yl}-amide]"
20,1080,"O=C(NC1CC(=O)N(c2ccc(CN3CCCCC3)cc2)C1)c1cc(CCc2ccccc2)[nH]n1 (stereo not shown) [Compound F204, 5-phenethyl-1H-pyrazole-3-carboxylic acid [5-oxo-1-(4-piperidin-1-ylmethyl-phenyl)-pyrrolidin-3-yl]-amide hydrochloride]"
21,7060,"O=C(NC1CC(=O)N(c2ccc(CN3CCCCC3)cc2)C1)c1ccc(CCc2ccccc2)nn1 (stereo not shown) [Compound F205, N-[5-oxo-1-[4-(1-piperidylmethyl)phenyl]pyrrolidin-3-yl]-6-(2-phenylethyl)pyridazine-3-carboxamide]"
22,9350,"O=C(NC1CC(=O)N(c2ccc(CN3CCCCC3)cc2)C1)c1cnc(CCc2ccccc2)s1 (stereo not shown) [Compound F206, N-[5-oxo-1-[4-(1-piperidylmethyl)phenyl]pyrrolidin-3-yl]-2-(2-phenylethyl)thiazole-5-carboxamide]"
23,2450,"COc1ccc(CCc2nnc(NC(=O)C3CC(=O)N(c4ccc(CN5CCOCC5)cc4)C3)o2)cc1 (stereo not shown) [Compound F207, N-[5-[2-(4-methoxyphenyl)ethyl]-1,3,4-oxadiazol-2-yl]-1-[4-(morpholinomethyl)phenyl]-5-oxo-pyrrolidine-3-carboxamide]"
24,9,"CCN(C)Cc1ccc(N2CC(C(=O)Nc3nnc(CCc4ccc(Cl)cc4)s3)CC2=O)cc1 (stereo not shown) [Compound F211, 1-{4-[(Ethyl-methyl-amino)-methyl]-phenyl}-5-oxo-pyrrolidine-3-carboxylic acid {5-[2-(4-chloro-phenyl)-ethyl]-[1,3,4]thiadiazol-2-yl}-amide]"
25,1,"O=C(Nc1nnc(CCc2ccc(Cl)cc2)s1)[C@H]1CC(=O)N(c2ccc(CN3CCC4(COC4)C3)cc2)C1 [Compound F212, (3S)-N-[5-[2-(4-chlorophenyl)ethyl]-1,3,4-thiadiazol-2-yl]-1-[4-(2-oxa-7-azaspiro[3.4]octan-7-ylmethyl)phenyl]-5-oxo-pyrrolidine-3-carboxamide]"
26,1,"O=C(Nc1nnc(CCc2ccc(Cl)cc2)s1)[C@H]1CC(=O)N(c2ccc(CN3CC4(COC4)C3)cc2)C1 [Compound F213, (3S)-N-[5-[2-(4-chlorophenyl)ethyl]-1,3,4-thiadiazol-2-yl]-1-[4-(2-oxa-6-azaspiro[3.3]heptan-6-ylmethyl)phenyl]-5-oxo-pyrrolidine-3-carboxamide]"
27,134,"CS(=O)(=O)NCc1ccc(N2C[C@H](NC(=O)c3nnc(CCc4ccc(Cl)cc4)s3)CC2=O)cc1 [Compound F214, 5-[2-(4-chlorophenyl)ethyl]-N-[(3R)-1-[4-(methanesulfonamido-methyl)phenyl]-5-oxo-pyrrolidin-3-yl]-1,3,4-thiadiazole-2-carboxamide]"

row,SMILES,IC50 [nM]
1,"O=C1CC(NCc2nnc(CCc3ccc(Cl)cc3)s2)CN1c1ccc(CN2CCOCC2)cc1 (stereo not shown) [Compound F183, 4-({5-[2-(4-Chloro-phenyl)-ethyl]-[1,3,4]thiadiazol-2-ylmethyl}-amino)-1-(4-morpholin-4-ylmethyl-phenyl)-pyrrolidin-2-one; hydrochloride]",23
